Results reported in ChEMBL document CHEMBL3797029, “Purinylpyridinylamino-based DFG-in/αC-helix-out B-Raf inhibitors: Applying mutant versus wild-type B-Raf selectivity indices for compound profiling” (Bioorg Med Chem, 2016).

How the values were obtained:
Parameters in all cases: scale not given: the % may be the effect or the level left
[1] = target: Mitogen-activated protein kinase 14 (Homo sapiens) (UniProt Q16539); assay: Inhibition of full length wild type human p38alpha expressed in bacterial system assessed as enzyme activity at 1 uM relative to control
[2] = target: Dual specificity tyrosine-phosphorylation-regulated kinase 1B (Homo sapiens) (UniProt Q9Y463); assay: Inhibition of partial length wild type human DYRK1B expressed in bacterial system assessed as enzyme activity at 1 uM relative to control
[3] = target: Casein kinase I isoform gamma-2 (Homo sapiens) (UniProt P78368); assay: Inhibition of full length wild type human CSNK1G2 expressed in bacterial system assessed as enzyme activity at 1 uM relative to control
[4] = target: Death-associated protein kinase 1 (Homo sapiens) (UniProt P53355); assay: Inhibition of partial length wild type human DAPK1 expressed in bacterial system assessed as enzyme activity at 1 uM relative to control
[5] = target: Casein kinase I isoform delta (Homo sapiens) (UniProt P48730); assay: Inhibition of full length wild type human CSNK1D expressed in bacterial system assessed as enzyme activity at 1 uM relative to control
[6] = target: MAP kinase-interacting serine/threonine-protein kinase 1 (Homo sapiens) (UniProt Q9BUB5); assay: Inhibition of full length wild type human MKNK1 expressed in mammalian system assessed as enzyme activity at 1 uM relative to control
[7] = target: Serine/threonine-protein kinase 33 (Homo sapiens) (UniProt Q9BYT3); assay: Inhibition of full length wild type human STK33 expressed in bacterial system assessed as enzyme activity at 1 uM relative to control
[8] = target: RAC-alpha serine/threonine-protein kinase (Homo sapiens) (UniProt P31749); assay: Inhibition of partial length wild type human AKT1 expressed in bacterial system assessed as enzyme activity at 1 uM relative to control
[9] = target: Mitogen-activated protein kinase kinase kinase 19 (Homo sapiens) (UniProt Q56UN5); assay: Inhibition of partial length wild type human YSK4 expressed in mammalian system assessed as enzyme activity at 1 uM relative to control
[10] = target: Insulin receptor (Homo sapiens) (UniProt P06213); assay: Inhibition of partial length wild type human INSR expressed in mammalian system assessed as enzyme activity at 1 uM relative to control
[11] = target: Mitogen-activated protein kinase kinase kinase 9 (Homo sapiens) (UniProt P80192); assay: Inhibition of partial length wild type human MLK1 expressed in bacterial system assessed as enzyme activity at 1 uM relative to control
[12] = target: Dual specificity protein kinase CLK2 (Homo sapiens) (UniProt P49760); assay: Inhibition of partial length wild type human CLK2 expressed in bacterial system assessed as enzyme activity at 1 uM relative to control
[13] = target: Serine/threonine-protein kinase D2 (Homo sapiens) (UniProt Q9BZL6); assay: Inhibition of partial length wild type human PRKD2 expressed in bacterial system assessed as enzyme activity at 1 uM relative to control
[14] = target: Cyclin-dependent kinase 2 (Homo sapiens) (UniProt P24941); assay: Inhibition of full length wild type human CDK2 expressed in bacterial system assessed as enzyme activity at 1 uM relative to control
[15] = target: Fibroblast growth factor receptor 1 (Homo sapiens) (UniProt P11362); assay: Inhibition of partial length wild type human FGFR1 expressed in bacterial system assessed as enzyme activity at 1 uM relative to control
[16] = target: Phosphatidylinositol 4,5-bisphosphate 3-kinase catalytic subunit delta isoform (Homo sapiens) (UniProt O00329); assay: Inhibition of partial length wild type human PIK3CD expressed in mammalian system assessed as enzyme activity at 1 uM relative to control
[17] = target: Ribosomal protein S6 kinase beta-1 (Homo sapiens) (UniProt P23443); assay: Inhibition of partial length wild type human S6K1 expressed in mammalian system assessed as enzyme activity at 1 uM relative to control
[18] = target: Serine/threonine-protein kinase TAO2 (Homo sapiens) (UniProt Q9UL54); assay: Inhibition of partial length wild type human TAOK2 expressed in mammalian system assessed as enzyme activity at 1 uM relative to control
[19] = target: Dual specificity tyrosine-phosphorylation-regulated kinase 1A (Homo sapiens) (UniProt Q13627); assay: Inhibition of partial length wild type human DYRK1A expressed in mammalian system assessed as enzyme activity at 1 uM relative to control
[20] = target: Cyclin-G-associated kinase (Homo sapiens) (UniProt O14976); assay: Inhibition of partial length wild type human GAK expressed in bacterial system assessed as enzyme activity at 1 uM relative to control
[21] = target: Platelet-derived growth factor receptor beta (Homo sapiens) (UniProt P09619); assay: Inhibition of partial length wild type human PDGFRbeta expressed in bacterial system assessed as enzyme activity at 1 uM relative to control
[22] = target: Cyclin-dependent kinase 18 (Homo sapiens) (UniProt Q07002); assay: Inhibition of full length wild type human PCTK3 expressed in bacterial system assessed as enzyme activity at 1 uM relative to control
[23] = target: Protein kinase C epsilon type (Homo sapiens) (UniProt Q02156); assay: Inhibition of partial length wild type human PRKCE expressed in mammalian system assessed as enzyme activity at 1 uM relative to control
[24] = target: Tyrosine-protein kinase Lck (Homo sapiens) (UniProt P06239); assay: Inhibition of partial length wild type human LCK expressed in bacterial system assessed as enzyme activity at 1 uM relative to control
[25] = target: Serine/threonine-protein kinase Chk1 (Homo sapiens) (UniProt O14757); assay: Inhibition of partial length wild type human CHEK1 expressed in bacterial system assessed as enzyme activity at 1 uM relative to control
[26] = target: Mitogen-activated protein kinase kinase kinase kinase 1 (Homo sapiens) (UniProt Q92918); assay: Inhibition of full length wild type human HPK1 expressed in bacterial system assessed as enzyme activity at 1 uM relative to control
[27] = target: Epidermal growth factor receptor (Homo sapiens) (UniProt P00533); assay: Inhibition of partial length wild type human EGFR expressed in bacterial system assessed as enzyme activity at 1 uM relative to control
[28] = target: Receptor-type tyrosine-protein kinase FLT3 (Homo sapiens) (UniProt P36888); assay: Inhibition of partial length wild type human FLT3 expressed in bacterial system assessed as enzyme activity at 1 uM relative to control
[29] = target: Tyrosine-protein kinase Lyn (Homo sapiens) (UniProt P07948); assay: Inhibition of partial length wild type human LYN expressed in bacterial system assessed as enzyme activity at 1 uM relative to control
[30] = target: Serine/threonine-protein kinase 3 (Homo sapiens) (UniProt Q13188); assay: Inhibition of partial length wild type human MST2 expressed in bacterial system assessed as enzyme activity at 1 uM relative to control
[31] = target: Ephrin type-A receptor 2 (Homo sapiens) (UniProt P29317); assay: Inhibition of partial length wild type human EPHA2 expressed in bacterial system assessed as enzyme activity at 1 uM relative to control
[32] = target: Serine/threonine-protein kinase TBK1 (Homo sapiens) (UniProt Q9UHD2); assay: Inhibition of full length wild type human TBK1 expressed in mammalian system assessed as enzyme activity at 1 uM relative to control
Chain of Serine/threonine-protein kinase TBK1 (Homo sapiens) (Q9UHD2 whole entry): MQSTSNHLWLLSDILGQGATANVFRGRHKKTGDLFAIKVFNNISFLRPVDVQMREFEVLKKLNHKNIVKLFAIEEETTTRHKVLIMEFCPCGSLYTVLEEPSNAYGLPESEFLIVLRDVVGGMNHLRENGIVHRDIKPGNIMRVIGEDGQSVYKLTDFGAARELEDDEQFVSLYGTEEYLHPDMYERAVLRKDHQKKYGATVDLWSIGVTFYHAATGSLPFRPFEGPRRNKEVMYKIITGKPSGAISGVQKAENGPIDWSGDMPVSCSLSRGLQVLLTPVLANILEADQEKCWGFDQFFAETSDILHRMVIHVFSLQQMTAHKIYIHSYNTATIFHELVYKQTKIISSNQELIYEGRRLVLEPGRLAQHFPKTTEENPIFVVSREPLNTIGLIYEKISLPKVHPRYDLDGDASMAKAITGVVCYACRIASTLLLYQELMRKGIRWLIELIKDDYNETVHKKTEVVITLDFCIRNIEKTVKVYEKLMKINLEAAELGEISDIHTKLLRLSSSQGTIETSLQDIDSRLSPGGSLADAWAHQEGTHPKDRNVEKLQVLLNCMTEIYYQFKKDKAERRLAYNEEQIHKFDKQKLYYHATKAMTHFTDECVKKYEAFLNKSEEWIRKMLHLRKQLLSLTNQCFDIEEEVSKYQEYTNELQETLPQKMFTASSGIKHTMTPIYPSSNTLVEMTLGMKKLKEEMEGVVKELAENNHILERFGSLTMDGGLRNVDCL

Chain of Cyclin-G-associated kinase (Homo sapiens) (O14976 whole entry): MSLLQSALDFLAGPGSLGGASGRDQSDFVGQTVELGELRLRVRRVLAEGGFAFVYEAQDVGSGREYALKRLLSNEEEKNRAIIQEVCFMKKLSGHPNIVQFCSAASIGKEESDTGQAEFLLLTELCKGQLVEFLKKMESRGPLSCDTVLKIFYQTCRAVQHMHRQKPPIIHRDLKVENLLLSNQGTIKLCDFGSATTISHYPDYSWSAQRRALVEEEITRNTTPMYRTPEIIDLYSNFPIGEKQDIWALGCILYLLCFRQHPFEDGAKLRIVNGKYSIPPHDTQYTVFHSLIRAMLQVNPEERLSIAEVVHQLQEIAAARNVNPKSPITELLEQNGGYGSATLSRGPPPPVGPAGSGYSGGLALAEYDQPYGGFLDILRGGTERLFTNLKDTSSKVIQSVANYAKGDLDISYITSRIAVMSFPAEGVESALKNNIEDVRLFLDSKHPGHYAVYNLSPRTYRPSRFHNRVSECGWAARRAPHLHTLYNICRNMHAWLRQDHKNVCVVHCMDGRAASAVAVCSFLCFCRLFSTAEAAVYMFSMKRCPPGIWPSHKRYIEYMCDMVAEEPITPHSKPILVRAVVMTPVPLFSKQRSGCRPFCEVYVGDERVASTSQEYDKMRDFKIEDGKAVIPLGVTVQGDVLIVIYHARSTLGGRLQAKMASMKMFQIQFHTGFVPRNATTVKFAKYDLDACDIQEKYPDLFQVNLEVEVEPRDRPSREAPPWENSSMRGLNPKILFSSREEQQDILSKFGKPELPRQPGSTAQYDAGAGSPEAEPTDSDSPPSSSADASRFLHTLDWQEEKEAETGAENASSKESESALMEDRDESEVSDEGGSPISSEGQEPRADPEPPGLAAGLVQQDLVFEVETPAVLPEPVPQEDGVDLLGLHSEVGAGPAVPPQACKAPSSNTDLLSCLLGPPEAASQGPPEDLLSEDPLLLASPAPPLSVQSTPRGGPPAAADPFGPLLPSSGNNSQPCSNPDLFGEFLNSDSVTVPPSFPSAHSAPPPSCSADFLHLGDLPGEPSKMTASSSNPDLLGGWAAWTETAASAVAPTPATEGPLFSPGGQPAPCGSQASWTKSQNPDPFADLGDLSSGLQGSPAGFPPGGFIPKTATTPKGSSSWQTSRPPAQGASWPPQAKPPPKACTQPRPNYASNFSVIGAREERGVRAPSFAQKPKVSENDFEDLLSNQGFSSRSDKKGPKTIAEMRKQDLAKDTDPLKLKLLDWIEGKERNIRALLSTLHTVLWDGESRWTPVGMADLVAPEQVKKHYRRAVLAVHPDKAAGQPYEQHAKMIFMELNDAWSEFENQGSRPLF
Chain of Mitogen-activated protein kinase 14 (Homo sapiens) (Q16539 whole entry): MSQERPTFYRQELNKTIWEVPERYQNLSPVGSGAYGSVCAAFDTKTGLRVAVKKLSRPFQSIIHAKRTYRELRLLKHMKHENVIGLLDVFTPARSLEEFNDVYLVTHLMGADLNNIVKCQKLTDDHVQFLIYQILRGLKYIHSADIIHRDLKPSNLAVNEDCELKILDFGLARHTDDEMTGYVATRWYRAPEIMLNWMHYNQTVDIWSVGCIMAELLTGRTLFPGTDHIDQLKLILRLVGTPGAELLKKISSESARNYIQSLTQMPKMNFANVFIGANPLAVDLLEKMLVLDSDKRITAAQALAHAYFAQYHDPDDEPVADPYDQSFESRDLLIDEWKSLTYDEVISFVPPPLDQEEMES
Chain of Platelet-derived growth factor receptor beta (Homo sapiens) (P09619 whole entry): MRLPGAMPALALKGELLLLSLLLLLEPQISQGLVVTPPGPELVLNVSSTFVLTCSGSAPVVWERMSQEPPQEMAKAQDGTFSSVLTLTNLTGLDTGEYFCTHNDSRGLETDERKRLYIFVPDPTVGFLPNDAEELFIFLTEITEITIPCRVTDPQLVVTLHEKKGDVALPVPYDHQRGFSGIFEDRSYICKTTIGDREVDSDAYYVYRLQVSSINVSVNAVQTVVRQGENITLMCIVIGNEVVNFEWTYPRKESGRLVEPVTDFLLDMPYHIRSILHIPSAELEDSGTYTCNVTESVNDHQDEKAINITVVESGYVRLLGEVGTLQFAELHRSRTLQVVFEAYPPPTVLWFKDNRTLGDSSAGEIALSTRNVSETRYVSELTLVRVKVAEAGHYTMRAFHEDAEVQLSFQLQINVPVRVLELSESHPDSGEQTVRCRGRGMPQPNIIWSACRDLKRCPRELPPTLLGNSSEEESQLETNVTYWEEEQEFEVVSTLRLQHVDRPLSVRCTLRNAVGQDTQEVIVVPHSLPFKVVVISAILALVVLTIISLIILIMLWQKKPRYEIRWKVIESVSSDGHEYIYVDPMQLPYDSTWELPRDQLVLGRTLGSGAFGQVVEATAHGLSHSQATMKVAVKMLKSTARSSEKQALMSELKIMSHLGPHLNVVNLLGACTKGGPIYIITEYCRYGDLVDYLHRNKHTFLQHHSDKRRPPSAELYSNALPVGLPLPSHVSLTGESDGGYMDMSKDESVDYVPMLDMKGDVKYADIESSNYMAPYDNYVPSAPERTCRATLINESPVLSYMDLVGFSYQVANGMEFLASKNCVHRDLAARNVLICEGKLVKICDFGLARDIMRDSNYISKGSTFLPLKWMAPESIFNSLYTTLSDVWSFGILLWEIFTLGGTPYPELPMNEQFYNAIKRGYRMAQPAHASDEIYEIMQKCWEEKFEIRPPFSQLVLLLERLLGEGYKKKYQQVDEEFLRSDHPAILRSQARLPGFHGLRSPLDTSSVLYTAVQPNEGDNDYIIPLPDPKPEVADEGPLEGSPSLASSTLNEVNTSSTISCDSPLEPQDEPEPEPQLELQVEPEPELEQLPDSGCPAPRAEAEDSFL
Chain of Receptor-type tyrosine-protein kinase FLT3 (Homo sapiens) (P36888 whole entry): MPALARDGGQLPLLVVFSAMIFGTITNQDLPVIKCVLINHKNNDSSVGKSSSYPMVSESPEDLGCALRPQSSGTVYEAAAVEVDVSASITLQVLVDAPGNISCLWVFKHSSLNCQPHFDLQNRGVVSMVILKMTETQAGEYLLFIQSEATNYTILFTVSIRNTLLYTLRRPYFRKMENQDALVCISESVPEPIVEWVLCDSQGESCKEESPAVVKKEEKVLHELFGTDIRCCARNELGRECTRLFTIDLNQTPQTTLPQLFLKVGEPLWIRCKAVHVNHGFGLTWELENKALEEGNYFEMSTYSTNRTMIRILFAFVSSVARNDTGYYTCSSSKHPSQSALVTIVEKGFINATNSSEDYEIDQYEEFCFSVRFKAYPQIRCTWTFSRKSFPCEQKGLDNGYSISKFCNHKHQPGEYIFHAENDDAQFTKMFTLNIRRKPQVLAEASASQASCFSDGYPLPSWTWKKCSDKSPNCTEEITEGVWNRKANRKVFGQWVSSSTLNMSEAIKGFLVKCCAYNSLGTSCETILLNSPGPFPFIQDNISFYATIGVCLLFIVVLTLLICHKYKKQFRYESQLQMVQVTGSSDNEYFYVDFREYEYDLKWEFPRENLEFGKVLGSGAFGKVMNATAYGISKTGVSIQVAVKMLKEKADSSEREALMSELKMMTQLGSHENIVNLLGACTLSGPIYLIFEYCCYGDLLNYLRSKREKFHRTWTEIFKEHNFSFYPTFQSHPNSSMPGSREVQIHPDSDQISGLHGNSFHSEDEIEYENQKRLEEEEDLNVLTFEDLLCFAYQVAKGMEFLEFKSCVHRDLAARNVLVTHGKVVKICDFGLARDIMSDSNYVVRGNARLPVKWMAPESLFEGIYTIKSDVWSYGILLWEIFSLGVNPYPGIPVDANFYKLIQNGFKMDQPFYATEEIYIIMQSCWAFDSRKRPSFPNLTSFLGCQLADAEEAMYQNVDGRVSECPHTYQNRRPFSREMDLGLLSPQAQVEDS
Chain of Casein kinase I isoform delta (Homo sapiens) (P48730 whole entry, looked up, canonical isoform): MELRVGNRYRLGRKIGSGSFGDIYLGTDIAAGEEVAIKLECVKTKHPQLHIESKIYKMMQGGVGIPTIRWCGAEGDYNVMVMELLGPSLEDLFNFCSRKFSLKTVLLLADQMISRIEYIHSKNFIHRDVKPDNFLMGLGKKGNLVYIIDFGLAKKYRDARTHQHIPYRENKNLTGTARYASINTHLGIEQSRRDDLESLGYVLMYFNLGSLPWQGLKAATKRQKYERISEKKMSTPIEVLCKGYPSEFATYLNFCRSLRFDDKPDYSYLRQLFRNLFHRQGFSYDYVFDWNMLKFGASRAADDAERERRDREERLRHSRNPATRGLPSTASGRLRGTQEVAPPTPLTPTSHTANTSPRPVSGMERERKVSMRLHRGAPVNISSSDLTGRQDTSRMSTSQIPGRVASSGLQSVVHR

Question: `CN(C)S(=O)(=O)Nc1ccc(F)c(Nc2ncccc2-c2ncnc3[nH]cnc23)c1F` was tested. Which Activity [1] did it give?
Answer: The Activity was 91%.

Question: And the Activity [2]?
Answer: Its Activity is 99%.

Question: And the Activity [3]?
Answer: The Activity was 60%.

Question: And the Activity [4]?
Answer: The Activity was 100%.

Question: What about the Activity [5] of the same molecule?
Answer: Its Activity is 83%.

Question: What about the Activity [6] of the same molecule?
Answer: Its Activity is 77%.

Question: And the Activity [7]?
Answer: The Activity was 100%.

Question: And the Activity [8]?
Answer: The Activity was 87%.

Question: And the Activity [9]?
Answer: Its Activity is 63%.

Question: And the Activity [10]?
Answer: Its Activity is 100%.

Question: What about the Activity [11] of the same molecule?
Answer: The Activity was 96%.

Question: And the Activity [12]?
Answer: Its Activity is 79%.

Question: And the Activity [13]?
Answer: Its Activity is 88%.

Question: And the Activity [14]?
Answer: The Activity was 99%.

Question: What about the Activity [15] of the same molecule?
Answer: Its Activity is 83%.

Question: And the Activity [16]?
Answer: Its Activity is 37%.

Question: And the Activity [17]?
Answer: The Activity was 100%.

Question: What about the Activity [18] of the same molecule?
Answer: The Activity was 94%.

Question: What about the Activity [19] of the same molecule?
Answer: The Activity was 96%.

Question: And the Activity [20]?
Answer: The Activity was 78%.

Question: What about the Activity [21] of the same molecule?
Answer: The Activity was 73%.

Question: And the Activity [22]?
Answer: The Activity was 89%.

Question: What about the Activity [23] of the same molecule?
Answer: Its Activity is 87%.

Question: And the Activity [24]?
Answer: The Activity was 79%.

Question: And the Activity [25]?
Answer: The Activity was 86%.

Question: What about the Activity [26] of the same molecule?
Answer: Its Activity is 87%.

Question: And the Activity [27]?
Answer: The Activity was 66%.

Question: What about the Activity [28] of the same molecule?
Answer: Its Activity is 71%.

Question: What about the Activity [29] of the same molecule?
Answer: The Activity was 93%.

Question: And the Activity [30]?
Answer: The Activity was 91%.

Question: And the Activity [31]?
Answer: The Activity was 74%.

Question: What about the Activity [32] of the same molecule?
Answer: The Activity was 100%.
